Measurements from ChEMBL document CHEMBL3885881, “DrugMatrix”.

Species on record: Rattus norvegicus
Assay: DrugMatrix - Regimen: Daily Repeat
Type: toxicity, organism-based, Sprague-Dawley
Design: regimen Daily Repeat, gender Male, age 6-8 weeks
Conditions: in vivo, po, route oral GAVAGE, vehicle 100 % WATER; for ABSOLUTE BASOPHIL / ABSOLUTE EOSINOPHIL / ABSOLUTE LYMPHOCYTE / ABSOLUTE MONOCYTE / ABSOLUTE SEGMENTED NEUTROPHIL / BASOPHIL / EOSINOPHIL / ERYTHROCYTE COUNT / HEMATOCRIT / HEMOGLOBIN / LEUKOCYTE COUNT / LYMPHOCYTE / MEAN CORPUSCULAR HEMOGLOBIN / MEAN CORPUSCULAR HEMOGLOBIN CONCENTRATION / MEAN CORPUSCULAR VOLUME / MONOCYTE / NEUTROPHIL / NUCLEATED RED BLOOD CELLS / PLATELET COUNT: tissue Blood; for ALANINE AMINOTRANSFERASE / ALBUMIN / ALKALINE PHOSPHATASE / ASPARTATE AMINOTRANSFERASE / BLOOD UREA NITROGEN / CARBON DIOXIDE / CHLORIDE / CHOLESTEROL / CREATINE PHOSPHOKINASE / CREATININE / GLUCOSE / LACTATE DEHYDROGENASE / LIPASE / PHOSPHORUS / POTASSIUM / SODIUM / TOTAL BILIRUBIN / TOTAL PROTEIN / URIC ACID: tissue Plasma
[1] = 0 mg/kg, 72 h, dose level Control, time 3 day
[2] = 0 mg/kg, 120 h, dose level Control, time 5 day
[3] = 15 mg/kg, 72 h, dose level Low, time 3 day
[4] = 15 mg/kg, 120 h, dose level Low, time 5 day

What does the source list for `COC(=O)C1=C(C)NC(C)=C(C(=O)OCC(C)C)C1c1ccccc1[N+](=O)[O-]` (configuration not stated) [NISOLDIPINE]?
ABSOLUTE BASOPHIL [1]: 0 CELLS/uL; ABSOLUTE EOSINOPHIL [1]: 0 CELLS/uL; ABSOLUTE LYMPHOCYTE [1]: 7802.17 CELLS/uL; ABSOLUTE MONOCYTE [1]: 13.5 CELLS/uL; ABSOLUTE SEGMENTED NEUTROPHIL [1]: 617.67 CELLS/uL; BASOPHIL [1]: 0%; EOSINOPHIL [1]: 0%; ERYTHROCYTE COUNT [1]: 5.35 x10E6/uL; HEMATOCRIT [1]: 33.02%; HEMOGLOBIN [1]: 12.88 G/DL; LEUKOCYTE COUNT [1]: 8.43 x10E3/uL; LYMPHOCYTE [1]: 92.67%; MEAN CORPUSCULAR HEMOGLOBIN [1]: 24.12 pg; MEAN CORPUSCULAR HEMOGLOBIN CONCENTRATION [1]: 39.03 G/DL; MEAN CORPUSCULAR VOLUME [1]: 61.8 fL; MONOCYTE [1]: 0.17%; NEUTROPHIL [1]: 7.17%; NUCLEATED RED BLOOD CELLS [1]: 0 /100WBC; PLATELET COUNT [1]: 1124.83 x10E3/uL; ALANINE AMINOTRANSFERASE [1]: 54.17 u/L; ALBUMIN [1]: 4.07 G/DL; ALKALINE PHOSPHATASE [1]: 383.83 u/L; ASPARTATE AMINOTRANSFERASE [1]: 82.17 u/L; BLOOD UREA NITROGEN [1]: 13.67 mg/dL; CARBON DIOXIDE [1]: 31 mmol/L; CHLORIDE [1]: 100.83 MEQ/L; CHOLESTEROL [1]: 65.17 mg/dL; CREATINE PHOSPHOKINASE [1]: 228.33 u/L; CREATININE [1]: 0.12 mg/dL; GLUCOSE [1]: 148 mg/dL; LACTATE DEHYDROGENASE [1]: 97.83 u/L; LIPASE [1]: 9.17 u/L; PHOSPHORUS [1]: 9.75 mg/dL; POTASSIUM [1]: 5.85 MEQ/L; SODIUM [1]: 147.02 MEQ/L; TOTAL BILIRUBIN [1]: 0.18 mg/dL; TOTAL PROTEIN [1]: 6.1 G/DL; URIC ACID [1]: 0.5 mg/dL; ABSOLUTE BASOPHIL [2]: 0 CELLS/uL; ABSOLUTE EOSINOPHIL [2]: 0 CELLS/uL; ABSOLUTE LYMPHOCYTE [2]: 10538 CELLS/uL; ABSOLUTE MONOCYTE [2]: 15.83 CELLS/uL; ABSOLUTE SEGMENTED NEUTROPHIL [2]: 762.83 CELLS/uL; BASOPHIL [2]: 0%; EOSINOPHIL [2]: 0%; ERYTHROCYTE COUNT [2]: 5.49 x10E6/uL; HEMATOCRIT [2]: 34.63%; HEMOGLOBIN [2]: 13.72 G/DL; LEUKOCYTE COUNT [2]: 11.32 x10E3/uL; LYMPHOCYTE [2]: 92.67%; MEAN CORPUSCULAR HEMOGLOBIN [2]: 24.97 pg; MEAN CORPUSCULAR HEMOGLOBIN CONCENTRATION [2]: 39.57 G/DL; MEAN CORPUSCULAR VOLUME [2]: 63.05 fL; MONOCYTE [2]: 0.17%; NEUTROPHIL [2]: 7.17%; NUCLEATED RED BLOOD CELLS [2]: 0.17 /100WBC; PLATELET COUNT [2]: 802 x10E3/uL; ALANINE AMINOTRANSFERASE [2]: 50.5 u/L; ALBUMIN [2]: 4.07 G/DL; ALKALINE PHOSPHATASE [2]: 336.83 u/L; ASPARTATE AMINOTRANSFERASE [2]: 81 u/L; BLOOD UREA NITROGEN [2]: 14.17 mg/dL; CARBON DIOXIDE [2]: 32 mmol/L; CHLORIDE [2]: 98.33 MEQ/L; CHOLESTEROL [2]: 69.17 mg/dL; CREATINE PHOSPHOKINASE [2]: 253.33 u/L; CREATININE [2]: 0.13 mg/dL; GLUCOSE [2]: 153.67 mg/dL; LACTATE DEHYDROGENASE [2]: 157 u/L; LIPASE [2]: 9 u/L; PHOSPHORUS [2]: 10.78 mg/dL; POTASSIUM [2]: 6.11 MEQ/L; SODIUM [2]: 144.57 MEQ/L; TOTAL BILIRUBIN [2]: 0.15 mg/dL; TOTAL PROTEIN [2]: 6.05 G/DL; URIC ACID [2]: 0.73 mg/dL; ABSOLUTE BASOPHIL [3]: 0 CELLS/uL; ABSOLUTE EOSINOPHIL [3]: 0 CELLS/uL; ABSOLUTE LYMPHOCYTE [3]: 6241.33 CELLS/uL; ABSOLUTE MONOCYTE [3]: 67 CELLS/uL; ABSOLUTE SEGMENTED NEUTROPHIL [3]: 425 CELLS/uL; BASOPHIL [3]: 0%; EOSINOPHIL [3]: 0%; ERYTHROCYTE COUNT [3]: 5.19 x10E6/uL; HEMATOCRIT [3]: 32.73%; HEMOGLOBIN [3]: 12.7 G/DL; LEUKOCYTE COUNT [3]: 6.73 x10E3/uL; LYMPHOCYTE [3]: 92.67%; MEAN CORPUSCULAR HEMOGLOBIN [3]: 24.5 pg; MEAN CORPUSCULAR HEMOGLOBIN CONCENTRATION [3]: 38.83 G/DL; MEAN CORPUSCULAR VOLUME [3]: 63.1 fL; MONOCYTE [3]: 1%; NEUTROPHIL [3]: 6.33%; NUCLEATED RED BLOOD CELLS [3]: 0 /100WBC; PLATELET COUNT [3]: 1002.33 x10E3/uL; ALANINE AMINOTRANSFERASE [3]: 56 u/L; ALBUMIN [3]: 4.03 G/DL; ALKALINE PHOSPHATASE [3]: 297.33 u/L; ASPARTATE AMINOTRANSFERASE [3]: 80.67 u/L; BLOOD UREA NITROGEN [3]: 11.67 mg/dL; CARBON DIOXIDE [3]: 30.67 mmol/L; CHLORIDE [3]: 100 MEQ/L; CHOLESTEROL [3]: 89.67 mg/dL; CREATINE PHOSPHOKINASE [3]: 318.67 u/L; CREATININE [3]: 0.11 mg/dL; GLUCOSE [3]: 147.67 mg/dL; LACTATE DEHYDROGENASE [3]: 95.33 u/L; LIPASE [3]: 13 u/L; PHOSPHORUS [3]: 9.1 mg/dL; POTASSIUM [3]: 5.7 MEQ/L; SODIUM [3]: 145.35 MEQ/L; TOTAL BILIRUBIN [3]: 0.1 mg/dL; TOTAL PROTEIN [3]: 5.77 G/DL; URIC ACID [3]: 0.47 mg/dL; ABSOLUTE BASOPHIL [4]: 0 CELLS/uL; ABSOLUTE EOSINOPHIL [4]: 0 CELLS/uL; ABSOLUTE LYMPHOCYTE [4]: 9912 CELLS/uL; ABSOLUTE MONOCYTE [4]: 68 CELLS/uL; ABSOLUTE SEGMENTED NEUTROPHIL [4]: 453.33 CELLS/uL; BASOPHIL [4]: 0%; EOSINOPHIL [4]: 0%; ERYTHROCYTE COUNT [4]: 5.6 x10E6/uL; HEMATOCRIT [4]: 34.7%; HEMOGLOBIN [4]: 13.63 G/DL; LEUKOCYTE COUNT [4]: 10.43 x10E3/uL; LYMPHOCYTE [4]: 95.33%; MEAN CORPUSCULAR HEMOGLOBIN [4]: 24.43 pg; MEAN CORPUSCULAR HEMOGLOBIN CONCENTRATION [4]: 39.3 G/DL; MEAN CORPUSCULAR VOLUME [4]: 62.07 fL; MONOCYTE [4]: 0.67%; NEUTROPHIL [4]: 4%; NUCLEATED RED BLOOD CELLS [4]: 0 /100WBC; PLATELET COUNT [4]: 1086 x10E3/uL; ALANINE AMINOTRANSFERASE [4]: 51 u/L; ALBUMIN [4]: 4.13 G/DL; ALKALINE PHOSPHATASE [4]: 346 u/L; ASPARTATE AMINOTRANSFERASE [4]: 74 u/L; BLOOD UREA NITROGEN [4]: 13.67 mg/dL; CARBON DIOXIDE [4]: 36.67 mmol/L; CHLORIDE [4]: 98.67 MEQ/L; CHOLESTEROL [4]: 67.33 mg/dL; CREATINE PHOSPHOKINASE [4]: 223.67 u/L; CREATININE [4]: 0.13 mg/dL; GLUCOSE [4]: 139.67 mg/dL; LACTATE DEHYDROGENASE [4]: 96.33 u/L; LIPASE [4]: 9 u/L; PHOSPHORUS [4]: 9.5 mg/dL; POTASSIUM [4]: 6.07 MEQ/L; SODIUM [4]: 144.53 MEQ/L; TOTAL BILIRUBIN [4]: 0.17 mg/dL; TOTAL PROTEIN [4]: 6.17 G/DL; URIC ACID [4]: 0.67 mg/dL
